Test results as given in the NIST ThermoML archive (doi:10.1021/acs.jced.8b00212).
± gives the expanded uncertainty stated by the source.

Conditions: Fluid (supercritical or subcritical phases), Brillouin light scattering

CCCCCCC [heptane]
Conditions	speed of sound [m/s]
513.4 K, 8000 kPa	451.65 ± 18
513.58 K, 6000 kPa	394.15 ± 14
513.59 K, 3000 kPa	293.56 ± 8.7
513.65 K, 4000 kPa	333.84 ± 11
513.92 K, 2500 kPa	266.66 ± 7.5
515.23 K, 5000 kPa	363.89 ± 12
515.3 K, 10000 kPa	481.16 ± 20
521.41 K, 5000 kPa	337.01 ± 11
523.19 K, 10000 kPa	459.31 ± 19
523.83 K, 3000 kPa	242.56 ± 6.7
524.25 K, 4000 kPa	291.43 ± 8.7
524.62 K, 6000 kPa	357.73 ± 12
524.62 K, 8000 kPa	417.84 ± 16
525.23 K, 2500 kPa	196.31 ± 5.5
528.41 K, 3000 kPa	218.56 ± 5.8
528.9 K, 4000 kPa	269.01 ± 7.6
528.93 K, 2500 kPa	167.01 ± 5
528.95 K, 8000 kPa	403.55 ± 15
529.1 K, 6000 kPa	344.17 ± 11
532.76 K, 3000 kPa	193.81 ± 5.4
533.4 K, 10000 kPa	437.12 ± 17
533.55 K, 4000 kPa	252.16 ± 6.9
533.57 K, 8000 kPa	391.25 ± 14
533.77 K, 6000 kPa	331.99 ± 10
534.12 K, 2500 kPa	121.38 ± 4.8
534.45 K, 5000 kPa	293.97 ± 8.7
537.58 K, 4000 kPa	231.06 ± 6.4
538.13 K, 2500 kPa	101.28 ± 3.8
538.36 K, 3000 kPa	152.7 ± 4.5
538.84 K, 8000 kPa	376.34 ± 13
539.09 K, 6000 kPa	316.72 ± 9.6
541.47 K, 4000 kPa	208.26 ± 5.3
542.55 K, 8000 kPa	364.39 ± 12
543.16 K, 10000 kPa	413.25 ± 15
543.5 K, 5000 kPa	262.34 ± 7.4
543.6 K, 6000 kPa	300.59 ± 8.8
544.09 K, 2500 kPa	100.71 ± 2.2
544.95 K, 3000 kPa	115.6 ± 3.4
547.02 K, 2500 kPa	107.6 ± 2.3
548.66 K, 8000 kPa	346.4 ± 11
548.98 K, 6000 kPa	283.97 ± 8.1
549.04 K, 3000 kPa	105.27 ± 2.9
549.16 K, 4000 kPa	178.39 ± 4.8
552.59 K, 2500 kPa	118.66 ± 2.5
553.05 K, 6000 kPa	270.32 ± 7.5
553.19 K, 8000 kPa	335.76 ± 11
553.2 K, 10000 kPa	388.87 ± 14
553.42 K, 5000 kPa	225.17 ± 5.8
553.43 K, 4000 kPa	160.12 ± 4
553.93 K, 3000 kPa	110.64 ± 2.6
557.81 K, 8000 kPa	325.48 ± 10
557.86 K, 6000 kPa	255.8 ± 6.9
559.74 K, 3000 kPa	116.03 ± 2.4
559.91 K, 2500 kPa	129.19 ± 2.8
560.41 K, 4000 kPa	132.63 ± 2.9
563.03 K, 10000 kPa	363.89 ± 12
563.09 K, 3000 kPa	119.84 ± 2.5
563.58 K, 8000 kPa	312.82 ± 9.5
563.84 K, 6000 kPa	236.54 ± 6.2
563.94 K, 4000 kPa	124.51 ± 2.9
564.02 K, 2500 kPa	135.46 ± 3
565.65 K, 5000 kPa	187.87 ± 4.7
572.57 K, 2500 kPa	144.47 ± 3.2
573.39 K, 10000 kPa	345.21 ± 11
574.33 K, 3000 kPa	134.46 ± 3
574.41 K, 8000 kPa	287.41 ± 8.2
574.85 K, 6000 kPa	211.93 ± 5.4
574.87 K, 5000 kPa	160.49 ± 3.9
575.28 K, 4000 kPa	113.58 ± 2.4
577.04 K, 5000 kPa	154.18 ± 3.8
579.18 K, 10000 kPa	331.94 ± 10
582.31 K, 5000 kPa	142.67 ± 3.3
582.39 K, 3000 kPa	142.99 ± 3.1
582.86 K, 10000 kPa	325.02 ± 10
583.1 K, 8000 kPa	270.69 ± 7.5
583.18 K, 6000 kPa	191.45 ± 4.8
584.19 K, 2500 kPa	156.26 ± 3.5
584.6 K, 4000 kPa	122.55 ± 2.5
587.85 K, 10000 kPa	315.79 ± 9.6
588.17 K, 5000 kPa	139.88 ± 3.2
590.48 K, 2500 kPa	161.58 ± 3.6
591.62 K, 4000 kPa	127.84 ± 2.6
591.77 K, 3000 kPa	152.87 ± 3.5
592.28 K, 5000 kPa	136.41 ± 3
592.57 K, 6000 kPa	176.14 ± 4.2
592.71 K, 10000 kPa	307.49 ± 9.3
593.19 K, 8000 kPa	249.19 ± 6.7
597.48 K, 5000 kPa	135.43 ± 3.2
601.6 K, 2500 kPa	170.4 ± 3.8
602.3 K, 5000 kPa	135.26 ± 2.9
602.84 K, 3000 kPa	161.38 ± 3.6
603.51 K, 10000 kPa	291.2 ± 8.6
603.68 K, 4000 kPa	143.88 ± 3.1
604.1 K, 6000 kPa	161.83 ± 3.7
604.67 K, 8000 kPa	226 ± 5.8
607.65 K, 5000 kPa	136.72 ± 3.1
612.08 K, 4000 kPa	149.82 ± 3.2
612.37 K, 3000 kPa	167.57 ± 3.7
612.58 K, 2500 kPa	179.23 ± 4.1
613.73 K, 6000 kPa	158.49 ± 3.6
613.93 K, 8000 kPa	218.01 ± 5.4
614.03 K, 10000 kPa	272.94 ± 7.5
615.11 K, 5000 kPa	142.58 ± 3.1
620.2 K, 8000 kPa	211.6 ± 5.3
620.87 K, 2500 kPa	183.77 ± 4.2
621.22 K, 4000 kPa	157.32 ± 3.5
622.48 K, 6000 kPa	158.77 ± 3.6
623.13 K, 10000 kPa	260.67 ± 7.2
623.25 K, 5000 kPa	150.58 ± 3.2
623.42 K, 3000 kPa	174.58 ± 4
631.85 K, 4000 kPa	163.15 ± 3.6
632.04 K, 3000 kPa	179.96 ± 4.1
632.18 K, 2500 kPa	189.44 ± 4.3
632.29 K, 5000 kPa	156.55 ± 3.4
632.41 K, 6000 kPa	159.42 ± 3.5
632.86 K, 8000 kPa	201.03 ± 4.8
640.72 K, 2500 kPa	192.85 ± 4.6
641.53 K, 3000 kPa	186.21 ± 4.2
641.95 K, 4000 kPa	173.32 ± 4
642.59 K, 8000 kPa	195.65 ± 4.6
643.04 K, 6000 kPa	164.74 ± 3.6
643.51 K, 5000 kPa	165.41 ± 3.6
650.07 K, 2500 kPa	195.77 ± 4.6
650.9 K, 3000 kPa	189.41 ± 4.3
